We go through 49 compounds from PubChem BioAssay AID179 (DTP/NCI, 2004).

Active and inactive are the calls of the source.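 How the source made its calls: active means compounds giving half or more protection of infected cells from virus-caused growth loss, again on retest; inactive means the rest.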 Where only a bound is given, the exact number is not on record here.

This experiment has as its system CEM cells HIV-1 protection, formazan growth assay. The experiment can be described thus: NCI AIDS Antiviral Assay. Particulars: for IC50: measured here: growth of uninfected CEM cells. The gist of the method:
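Soluble formazan readout of cell growth; CEM cells ± HIV-1; 5 drug concs. ≥50% protection → retest; ≥50% again = moderately active; reproducible 100% = confirmed active.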

As usually defined, the EC50 is the concentration needed to bring the measured effect to its halfway point. As usually defined, the IC50 is the midpoint of a concentration-inhibition curve. Lower therefore signals inhibition by little substance. `Cc1ccc2nc(NS(=O)(=O)c3cc(C)c(Cl)cc3S)[nH]c2c1`: the EC50 is more than 200 µM and the IC50 was more than 200 µM.
On to `CC[C@](O)(CC(=O)O[C@H]1C(=O)O[C@@H]2C[C@H]3C(C)=CC(=O)[C@@H](O)[C@]3(C)[C@H]3[C@@]4(O)OC[C@]32[C@@H]1[C@@H](C)[C@H]4O)C(C)C`, for which the EC50 is more than 0.2 µM and the IC50 is 0.00363 µM.
The like results for `Cc1ccc(SCC(CSCCO)OCn2cnc3c2NC(N)=NC32OCCO2)cc1` (stereo unspecified) were, in that order, more than 200 µM and more than 200 µM.
Take `O=C1CCC2(c3ccccc3)Nc3cc(Cl)ccc3N12` (stereo unspecified): the outcome was inactive.
In the case of `O=[N+]([O-])c1cc(Cc2cc(Cl)c(O)c([N+](=O)[O-])c2)cc(Cl)c1O`, the EC50 is more than 200 µM and the IC50 is 35.5 µM.
With `C=C(c1cc(C(=O)OC)c(OC)c(Br)c1C)c1cc(C(=O)OC)c(OC)c(Br)c1C`, the EC50 is more than 200 µM and the IC50 worked out at 77.6 µM.
For `C=C1C(=O)O[C@H]2[C@H]3O[C@@H](C[C@@H]12)[C@@]1(C)CC[C@H](O1)[C@H](C)CCC[C@H]3C`, the EC50 is more than 20 µM and the IC50 came to 1.07 µM.
Regarding `O=C1c2cc([N+](=O)[O-])cc3cc([N+](=O)[O-])cc(c23)C(=O)N1CCNCCN1C(=O)c2cc([N+](=O)[O-])cc3cc([N+](=O)[O-])cc(c23)C1=O`, the EC50 was more than 29.5 µM and the 50% inhibitory concentration (IC50) is 0.0912 µM.
As for `Cc1ccc(N=Nc2c(O)c(S(=O)(=O)O)cc3cc(S(=O)(=O)O)ccc23)c(C)c1`, the outcome was inactive.
With `O=C1CCCN1CO`, the EC50 is more than 200 µM and the IC50 was more than 200 µM.
`CN(C)CCn1c(=O)c2ccc(NCCNCCO)c3c(=O)c4ccccc4n(c1=O)c23`: the EC50 was more than 0.2 µM and the IC50 came to 0.0112 µM.
The like results for `NC(=O)Cn1c(=O)oc2cc(C(=O)CN3CCOCC3)ccc21` were, in that order, more than 200 µM and more than 200 µM.
For the compound `COC(=Nc1ccccc1)SSC(C)C`, the EC50 was more than 200 µM and the IC50 was 2.82 µM.
Regarding `CCOC(=O)c1c(NS(=O)(=O)c2ccccc2)sc2c1CCCC2`, the outcome was inactive.
As for `FC(F)(F)C12C34C=CC5(CCC6(C=CC1(CC3)O6)C52C(F)(F)F)O4` (stereo unspecified), the outcome was inactive.
With `COC(=O)N1N=C(c2ccccc2)C1c1ccccc1` (stereo unspecified), the EC50 was more than 200 µM and the IC50 was 38 µM.
On to `O=c1c(SCc2ccccc2Cl)c(SCc2ccccc2Cl)cnn1-c1ccccc1`, for which the EC50 was more than 7.76 µM and the IC50 was 5.5 µM.
`Cc1cc(O)cc(O)c1N=Nc1ccc([N+](=O)[O-])cc1`: the EC50 was more than 200 µM and the IC50 came out at 3.47 µM.
In the same order, the values of `O=c1[nH]c2cc([N+](=O)[O-])ccc2nc1/C(=N\Nc1ccccc1)C(O)c1ccc2c(c1)OCO2` (stereo unspecified) are more than 447 µM and 214 µM.
The like results for `Cc1ccc(S(=O)(=O)NNC(=O)c2cc(C(=O)NNS(=O)(=O)c3ccc(C)cc3)c(C)nc2C)cc1` were, in that order, more than 200 µM and 162 µM.
The like results for `CNn1c(-c2ccc(C)cc2)n[nH]c1=O` were, in that order, 49 µM and 56.2 µM.
For `NC(=O)CCNC(=O)c1ccccc1SC(=O)OCCBr`, the EC50 stood at 6.31 µM and the IC50 was more than 200 µM.
Consider `CCOc1cc2c(cc1O)CC[C@@H]1[C@@H]2CC[C@]2(C)C(N)CC[C@@H]12` (stereo partly specified), for which the EC50 was more than 200 µM and the IC50 turned out to be 1.2 µM.
On to `c1ccc2nc(NCCSSCCNc3cnc4ccccc4n3)cnc2c1`, for which the EC50 was more than 200 µM and the IC50 was 24.5 µM.
The like results for `CC(=O)Nc1cc(N=Nc2ccc(N=Nc3ccc(NC(=O)c4ccc(N)cc4)cc3C)cc2C)c(S(=O)(=O)O)cc1N=Nc1ccc(S(=O)(=O)O)cc1` were, in that order, 12.9 µM and 155 µM.
For the compound `CN(C)NC(=S)NC12CC3CC(CC(C3)C1)C2`, the result was inactive.
Take `S=C(N/N=C\C=N/NC(=S)N1CCCCC1)N1CCCCC1`: the EC50 was more than 2 µM and the IC50 is 0.363 µM.
As to `CC12CCC3c4cc(Br)c(O)c(Br)c4CCC3C1CCC2O` (stereo unspecified), the EC50 was more than 200 µM and the IC50 was 6.76 µM.
In the same order, the values of `O=C1CCCCCCCCCCC(=O)N2CCOCCOCCN1Cc1cccc(n1)C2` are more than 407 µM and 316 µM.
Turning to `COC(=O)C1=C(C(=O)OC)C2(c3ccccc3)OC1(c1ccccc1)c1cc3ccccc3cc12`, the result was inactive.
With `CN(O)C(=O)Cc1ccc(OCc2cccc(Cl)c2)cc1`, the EC50 was more than 200 µM and the IC50 is more than 200 µM.
Regarding `OC1(c2ccccc2)c2ccccc2CCC1Br` (stereo unspecified), the EC50 is more than 200 µM and the IC50 stood at 56.2 µM.
The like results for `CCOC(=O)C(=Cc1cc(OC)ccc1OC)C(=O)OCC` were, in that order, more than 117 µM and 18.2 µM.
As for `COc1cc2c3cc1Oc1c(OC)c(OC)cc4c1[C@H](Cc1cc5c(c(c1)Oc1ccc(cc1)CC3N(C)CC2)OCO5)N(C)CC4` (stereo partly specified), the result was inactive.
As for `O=c1oc2ccccc2c(O)c1/C=N\c1nc(-c2ccc(O)c(O)c2)cs1`, the EC50 was more than 200 µM and the IC50 was 3.24 µM.
In the same order, the values of `OC/C=C/[C@H](OCc1ccccc1)[C@H](/C=C/CO)OCc1ccccc1` are more than 200 µM and 57.5 µM.
In the same order, the values of `CC(=O)Oc1ccn2nc(C)c(Cc3c(C)nn4ccc(OC(C)=O)cc34)c2c1` are more than 200 µM and 28.2 µM.
In the same order, the values of `COc1ccc(-n2cnn3c(=O)c4cn[nH]c4nc23)cc1` are more than 200 µM and more than 200 µM.
In the case of `O=C(c1ccccc1)[C@H]1Nc2cnccc2C2c3ccccc3CC21` (stereo partly specified), the EC50 is more than 30.9 µM and the half-maximal inhibitory concentration (IC50) is more than 30.9 µM.
In the case of `NC(=O)N/N=C(/c1nc2ccc([N+](=O)[O-])cc2[nH]c1=O)C(O)c1ccco1` (stereo unspecified), the EC50 was more than 182 µM and the IC50 is more than 182 µM.
For `CN1CN(c2ccccc2)C2(CCN(CC(C)(c3ccc(F)cc3)C3OCCCO3)CC2)C1=O` (stereo unspecified), the EC50 was more than 200 µM and the IC50 was found to be 107 µM.
As to `CCCCCCC(C)S(=O)(=O)O` (stereo unspecified), the EC50 was more than 200 µM and the IC50 was more than 200 µM.
As to `Cc1nc2ccccc2nc1CC(=N)c1ccccc1`, the EC50 was more than 200 µM and the IC50 was 61.7 µM.
In the same order, the values of `C/C(=N\N=C(/[O-])c1ccccc1)c1cccc(/C(C)=N/N=C(\[O-])c2ccccc2)n1.O.[Ni+2]` are more than 100 µM and more than 100 µM.
The like results for `CCOC(=O)[C@@H](NC(=O)OC(C)(C)C)[C@@H](O)C(=O)OCC` were, in that order, more than 200 µM and more than 200 µM.
Consider `O=[N+]([O-])c1ccc2c(Nc3ccccc3-c3ccccc3Nc3c4ccccc4nc4cc([N+](=O)[O-])ccc34)c3ccccc3nc2c1`, for which the EC50 is more than 2.29 µM and the IC50 was more than 2.29 µM.
As for `[Zn+2].c1ccc(-c2c3nc(c(-c4ccccc4)c4[n-]c(c(-c5ccccc5)c5nc(c(-c6ccccc6)c6[n-]c2c2ccccc62)-c2ccccc2-5)c2ccccc42)-c2ccccc2-3)cc1`, the EC50 was more than 50.1 µM and the IC50 was more than 50.1 µM.
Turning to `CC(C)N1CC2CN(Cc3ccccc3)CC(C1)C2=O`, the EC50 was more than 479 µM and the IC50 was more than 479 µM.
For `CCC1(c2ccc(OC)c(OC)c2)CCN(S(=O)(=O)c2ccc(C)cc2)C1` (stereo unspecified), the EC50 was more than 200 µM and the IC50 was more than 200 µM.
